# Several values for one entry are separate records, joined by “and”; a condition that tells them apart may be missing. Equal entries are not always repeated. Where two headings read alike, the source gives them in different places.
# How the values were obtained:
# [1] = system: MRSA biofilm; assay: Biofilm assay of MRSA; format: cell-based, Staphylococcus aureus; details: for Absorbance at 550 nm of the MRSA biofilm (crystal violet): replicate wells; for IC50: read-out: MBIC50 (median biofilm inhibitory concentration)
# From the text: (§1) The Gram-positive bacterial strains that were examined for susceptibility were: Staphylococcus aureus (ATCC 29213, American Type Cell Culture Collection, Manassas, VA, USA), Staphylococcus aureus—MRSA (NBIMCC 8327-resistant to methicillin and oxacillin, National Bulgarian Collection for Industrial Microorganisms and Cell Cultures, Sofia, Bulgaria), Enterococcus faecalis (ATCC 29212) and Streptococcus pyogenes (SAIMC 10535, Collection of the Stephan Angeloff Institute of Microbiology, Sofia, Bulgaria). The only Gram-negative bacterial strain used was Escherichia coli (ATCC 35218). Bacteria were maintained in Trypticase Soy Broth (TSB, Himedia, India) at 37 °C, aerobic conditions. For the experiments brain heart infusion (BHI) broth (#M210 HiMedia, Mumbai, India) was used for E. faecalis and S. pyogenes and Mueller Hinton broth (MHB, #M0405B) from Thermo Scientific-Oxoid (Basingstoke, UK)—for all other strains.
# The bacterial inoculum was prepared as described above for the BMD. […] After that an optimized protocol was applied for the visualization of the biofilm. Firstly, the supernatant was removed, and planktonic cells were removed by washing the wells carefully 3× with 200 μL/well PBS. Then, fixing of the remaining cells was performed by incubation with 200 μL/well methanol for 15 sec at room temperature. The methanol was removed and the plate was dried by air for 5–10 s. Next, 50 μL of 2% Hucker crystal violet was poured into the wells and excess stain was rinsed off by running tap water. After that, the cells were air dried and the biofilm formation in the wells was documented microscopically (40×, Inverted trinocular biological microscope model BIB-100 and digital camera B-CAM16, application software B-View, Boeco, Hamburg, Germany). Then the dye bound to biofilm in the wells was re-solubilized with 160 μL 33% acetic acid and the absorbance of each well was measured at 550 nm with lid (Table S1 in Supplementary Materials). […] MBIC were assessed visually and MBIC50 were calculated by GraphPad Prism software with a mathematical model for a dose–response relationship (variable slope) after normalization of the data and logarithmic transformation of the applied concentrations (X-data).
# [2] = system: Enterococcus faecalis (ATCC 29212); assay: MIC by broth microdilution; format: cell-based
# From the text: as §1
# (§2) BMD was performed according to the following protocol of ISO 20776/1-2006 [117]. A bacterial suspension with density of 10^8 CFU/mL (0.5 McFarland standard, OD600) was prepared from an overnight grown liquid bacterial culture homogenized over vortex and brought to a working bacterial suspension (WBS) with concentration of 5×10^5 CFU/mL by being diluted 200× with MHB or BHI broth and homogenized over vortex again. Two-fold serial dilutions of compounds 3–5 was prepared in 96-well round bottom plates to a volume of 50 μL and final range of concentrations 100–0.2 μg/mL. Stock solutions were dissolved in ethanol and MHB was used as diluent and as test for absence of contamination. Three wells were left as blank samples and 6 wells were left for control samples. An equivalent volume (50 μL) of the WBS was inoculated to each well in the aforementioned plates achieve final bacterial density of […] with the exception of the blank wells. After 18–24 h incubation under aerobic standardized conditions at 37 °C the plates were examined. […] Antibiotics dissolved in sterile distilled water were used as referent positive controls. They were penicillin G (PEN, #B0500000, Merck KGaA, Darmstadt, Germany) for E. faecalis and S. pyogenes, gentamicin (GEN, #15750-037, 50 mg/mL, Gibco, Paisley, UK) for all bacteria except S. pyogenes and ciprofloxacin (CIP, Ciproflav:10 mg/mL, Polfa S.A. Warsaw Pharmaceutical Works, Starogard Gdanski, Poland) for E. faecalis. The range of concentrations were 0.004–2 mg/L for PEN, 0.008–4 mg/L for GEN and 0.005–2 mg/L for CIP. The requirements of EUCAST (European Committee on Antimicrobial Susceptibility Testing) for their MICs were followed for discussing the results. In the end the plates which contained active agents were subjected to assessment of the dehydrogenase activity of the bacteria.
# [3] = system: Staphylococcus aureus—MRSA (NBIMCC 8327); assay: MIC by broth microdilution; format: cell-based
# From the text: as §1, §2
# [4] = system: Staphylococcus aureus (ATCC 29213); assay: MIC by broth microdilution; format: cell-based
# From the text: as §1, §2
# [5] = system: Streptococcus pyogenes (SAIMC 10535); assay: MIC by broth microdilution; format: cell-based
# From the text: as §1, §2
# [6] = MRSA biofilm, assessed visually
# [7] = Staphylococcus aureus, MRSA biofilm, interval in brackets
# [8] = MRSA biofilm, interval in brackets
Molecule,Absorbance at 550 nm of the MRSA biofilm (crystal violet) ([1]; 0.125 mg/L),Absorbance at 550 nm of the MRSA biofilm (crystal violet) ([1]; 0.25 mg/L),Absorbance at 550 nm of the MRSA biofilm (crystal violet) ([1]; 0.5 mg/L),Absorbance at 550 nm of the MRSA biofilm (crystal violet) ([1]; 1 mg/L),MBIC ([1]; MRSA biofilm),MBIC (minimum biofilm inhibitory concentration) ([1]; MRSA biofilm),"MBIC (minimum biofilm inhibitory concentration) [1, 6]","IC50 [1, 7]","MIC ([2]; ATCC29212, read-out: MIC)",MIC ([3]; read-out: MIC),MIC [4],MIC ([4]; read-out: MIC),MIC ([5]; read-out: MIC),MIC [3],further results
"CC(C)=CCC[C@]1(C)[C@@H](CC=C(C)C)C[C@]2(C)C(=O)C(CC=C(C)C)=C(O)[C@@]1(C(=O)C(C)C)C2=O [Compound 3, hyperpolyphyllirin/hyperibine J]",0.347 and 0.336,0.376 and 0.403,0.276 and 0.394,0.249 and 0.184,4 mg/L,8.29 µM,4.0 mg/L,0.17 µg/mL and 350 nM,8 µg/mL and 16.6 µM,8 µg/mL and 16.6 µM,2.00 mg/L,4.14 µM,31 µg/mL and 64.2 µM,–,Absorbance at 550 nm of the MRSA biofilm (crystal violet) ([1]; 2 mg/L): 0.353 and 0.444; Absorbance at 550 nm of the MRSA biofilm (crystal violet) ([1]; 4 mg/L): 0.110 and 0.099
"CC(C)=CCC[C@]1(C)[C@@H](CC=C(C)C)C[C@H]2C(=O)[C@]1(C(=O)C(C)C)C(=O)C(CC=C(C)C)=C2O [Compound 5, (1S,5R,7S,8R)-4-hydroxy-1-isobutyryl-8-methyl-3,7-bis(3-methylbut-2-en-1-yl)-8-(4-methylpent-3-en-1-yl)bicyclo[3.3.1]non-3-ene-2,9-dione]",0.926 and 0.790,0.592 and 0.502,0.534 and 0.342,0.332 and 0.406,0.5 mg/L,1.07 µM,0.5 mg/L,0.05 µg/mL and 120 nM,4 µg/mL and 8.53 µM,1 µg/mL and 2.14 µM,1.00 mg/L,2.14 µM,4 µg/mL and 8.53 µM,1.00 mg/L,"Absorbance at 550 nm of the MRSA biofilm (crystal violet) ([1]; 0.063 mg/L): 0.978 and 1.044; MIC ([4]; ATCC29213, Staphylococcus aureus, read-out: MIC): 0.78 µg/mL to 2 µg/mL and 1.57 µM to 4.14 µM"
"(1R,5R,7S,8R)-4-hydroxy-5,8-dimethyl-3,7-bis(3-methylbut-2-en-1-yl)-1-(2-methylbutanoyl)-8-(4-methylpent-3-en-1-yl)bicyclo[3.3.1]non-3-ene-2,9-dione [Compound 4]",–,–,–,–,–,25.17 µM,12.5 mg/L,–,–,25.17 µM,0.78 mg/L,1.57 µM,25.17 µM,12.5 mg/L,"Absorbance at 550 nm of the MRSA biofilm (crystal violet) ([1]; 0.78 mg/L): 0.324 and 0.229 and 0.230; Absorbance at 550 nm of the MRSA biofilm (crystal violet) ([1]; 1.56 mg/L): 0.248 and 0.194 and 0.193; Absorbance at 550 nm of the MRSA biofilm (crystal violet) ([1]; 3.13 mg/L): 0.264 and 0,195 and 0,139; Absorbance at 550 nm of the MRSA biofilm (crystal violet) ([1]; 6.25 mg/L): 0.184 and 0.121 and 0.092; Absorbance at 550 nm of the MRSA biofilm (crystal violet) ([1]; 12.5 mg/L): 0.152 and 0.150 and 0.072; MBIC50 (median biofilm inhibitory concentration) [1, 8]: 0.67 (0.39 to 1.17) mg/L; IC50 [1, 8]: 1350 nM; MIC [2]: 12.5 mg/L; MIC ([2]; read-out: MIC): 25.17 µM; MIC [5]: 12.50 mg/L"
